Among the test systems are HOP-62 NSCLC; HCT-116 colon; UACC-62 melanoma; SN12C renal; A498 renal; T-47D breast; HOP-92 NSCLC; UO-31 renal; HT29 colon; PC-3 prostate.
What all share (experiment): DTP human tumour cell line panel, 48 h

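1) Cells in 96-well plates. 2) Compound, 48 h, 5 concentrations. 3) Linear interpolation between surrounding doses. 4) Unreached endpoint = highest concentration. At the GI50, growth is halved. TGI is the concentration that stops growth completely.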 Bounds are passed on as bounds.

As to `O=C(Nc1ccc2[nH]c(C(=O)N3CC(CCl)c4c3cc([N+](=O)[O-])c3ccccc43)cc2c1)c1cc2ccccc2o1` (stereo not given), the GI50 in the test with HOP-62 NSCLC, with HCT-116 colon, in the test with UACC-62 melanoma, with SN12C renal, with A498 renal and with T-47D breast was over 1100 µM in each case. The GI50 with HOP-92 NSCLC, in the test with UO-31 renal and in the test on HT29 colon was over 1100 µM throughout. The TGI in the test on HOP-62 NSCLC, with HCT-116 colon, with UACC-62 melanoma, with SN12C renal, in the test with A498 renal and in the test on T-47D breast was over 1100 µM throughout. The TGI in the test with HOP-92 NSCLC, with UO-31 renal and with HT29 colon was over 1100 µM each time.

Regarding `CC(=O)C1COC(O)C1C` (stereo not given), the TGI is 33 µM in the test on HOP-62 NSCLC; 39.6 µM with HCT-116 colon; 55.5 µM in the test on PC-3 prostate; 27.2 µM in the test with UACC-62 melanoma; 50.6 µM in the test on SN12C renal; over 100 µM in the test with A498 renal. Moreover, the TGI in the test with T-47D breast was over 100 µM; in the test with HOP-92 NSCLC it was 78.7 µM; in the test with UO-31 renal, 34.9 µM; in the test with HT29 colon, over 100 µM.

Turning to `CCN(CC)CCCC(C)Nc1c2ccc(Cl)cc2nc2cc(OC)c(OC)cc12` (stereo not given), the GI50 with HCT-116 colon was 0.861 µM; in the test on PC-3 prostate, 2.08 µM; with UACC-62 melanoma, 2.14 µM; in the test on SN12C renal, 3.31 µM; with A498 renal, 7.07 µM; in the test with T-47D breast, 7.36 µM. Also, the GI50 in the test on HOP-92 NSCLC is 2.33 µM; with UO-31 renal it was 1.43 µM; in the test on HT29 colon it was 1.54 µM. The TGI with HCT-116 colon was found to be 4.28 µM; in the test with PC-3 prostate it was 6.28 µM; in the test with UACC-62 melanoma, 4.69 µM; in the test with SN12C renal it was 17.8 µM; in the test on A498 renal it was 22.2 µM; in the test on T-47D breast, 32.5 µM. Further, the TGI with HOP-92 NSCLC was found to be 8.34 µM; in the test with UO-31 renal, 2.89 µM; in the test on HT29 colon it was 10.3 µM.

Turning to `COc1cc(F)cc([C@@H](CO)NC(=O)[C@@H](C)N2Cc3ccc(-c4nc(NC5CCOCC5)ncc4Cl)cc3C2=O)c1`, the GI50 was 0.0519 µM in the test with HOP-62 NSCLC; 0.0173 µM in the test with HCT-116 colon; 9.69 µM in the test with PC-3 prostate; under 0.01 µM in the test with UACC-62 melanoma; 1.33 µM in the test on SN12C renal; 0.0878 µM in the test with A498 renal. Further, the GI50 in the test on T-47D breast was 5.03 µM; in the test on HOP-92 NSCLC it was 0.0321 µM; in the test with UO-31 renal, 0.406 µM; with HT29 colon, under 0.01 µM. Also, the TGI in the test with HOP-62 NSCLC is over 86.2 µM; with HCT-116 colon it was over 54.9 µM; in the test with PC-3 prostate, 98.2 µM; in the test on UACC-62 melanoma it was 0.0248 µM; in the test with SN12C renal, over 100 µM; in the test on A498 renal it was 5.86 µM. For the same compound, the TGI in the test with T-47D breast is 33 µM; in the test with HOP-92 NSCLC, 0.26 µM; in the test with UO-31 renal it was 33.6 µM; in the test with HT29 colon, over 54.2 µM.

Consider `O=C(/C=C/c1cccc([N+](=O)[O-])c1)c1ccc(O)c(CN2CCN(c3cc4c(cc3F)c(=O)c(C(=O)O)cn4C3CC3)CC2)c1`, for which the GI50 with HOP-62 NSCLC is 3.47 µM; in the test on HCT-116 colon it was 0.494 µM; with PC-3 prostate, 1.85 µM; with UACC-62 melanoma, 1.66 µM; in the test with SN12C renal it was 1.75 µM; in the test on A498 renal, 1.35 µM. The GI50 with T-47D breast was 1.85 µM; in the test with HOP-92 NSCLC it was 2.17 µM; with UO-31 renal it was 1.29 µM; with HT29 colon, 2.44 µM. For the same compound, the concentration for total growth inhibition (TGI) stood at 16.8 µM with HOP-62 NSCLC; 1.81 µM in the test with HCT-116 colon; 5.37 µM in the test on PC-3 prostate; 3.45 µM in the test with UACC-62 melanoma; 3.45 µM with SN12C renal; 2.84 µM in the test with A498 renal. Besides, the TGI in the test with T-47D breast is 4.99 µM; in the test with HOP-92 NSCLC, 9.97 µM; with UO-31 renal, 2.67 µM; in the test with HT29 colon, 6.25 µM.

Turning to `CC1(C)CCC[C@]2(C)c3cc(O)ccc3CC[C@@H]12`, the GI50 with HCT-116 colon was 42.2 µM; in the test on PC-3 prostate, 15.8 µM; in the test with UACC-62 melanoma, 13.1 µM; in the test with SN12C renal, 17.5 µM; in the test on A498 renal, 16.2 µM; with UO-31 renal, 19.9 µM. Moreover, the GI50 in the test on HT29 colon was 23.2 µM. Also, the concentration for total growth inhibition (TGI) in the test with HCT-116 colon is over 100 µM; with PC-3 prostate, 30.2 µM; in the test on UACC-62 melanoma it was 25.8 µM; in the test on SN12C renal it was 31.3 µM; with A498 renal, 29.7 µM; in the test on UO-31 renal, 40.2 µM. Moreover, the total growth inhibition concentration (TGI) in the test on HT29 colon worked out at 43.7 µM.

For the compound `Cc1ccc(C(=O)/C(=C\c2ccc([N+](=O)[O-])cc2)S(=O)Cc2ccc(F)cc2)cc1` (stereo not given), the GI50 in the test on HOP-62 NSCLC is 2.35 µM; in the test on HCT-116 colon, 0.499 µM; with PC-3 prostate it was 1.52 µM; with UACC-62 melanoma, 1.53 µM; in the test on SN12C renal, 1.7 µM; in the test with A498 renal it was 2.48 µM. In addition, the GI50 with T-47D breast is 1.91 µM; with HOP-92 NSCLC, 1.93 µM; in the test on UO-31 renal it was 1.36 µM. For the same compound, the TGI came out at 6.3 µM with HOP-62 NSCLC; 1.79 µM with HCT-116 colon; 3.09 µM in the test with PC-3 prostate; 2.97 µM with UACC-62 melanoma; 3.42 µM in the test on SN12C renal; 6.04 µM in the test with A498 renal. Besides, the TGI in the test on T-47D breast came to 5.51 µM; with HOP-92 NSCLC, 3.87 µM; in the test with UO-31 renal it was 2.69 µM.

For the compound `COc1ccc(C2=Nc3c/c(=C\c4c(O)[nH]c5ccc(Cl)cc45)ccc3=N2)cc1`, the GI50 is 1.82 µM in the test on HOP-62 NSCLC; 1.55 µM in the test with HCT-116 colon; 1.56 µM with PC-3 prostate; 1.33 µM in the test on A498 renal; 2.22 µM in the test on T-47D breast; 1.46 µM in the test with UO-31 renal. Further, the TGI with HOP-62 NSCLC turned out to be 4.02 µM; with HCT-116 colon, 3.1 µM; in the test on PC-3 prostate, 4 µM; in the test with A498 renal it was 7.78 µM; in the test with T-47D breast it was 5.63 µM; in the test with UO-31 renal, 3.46 µM.

The record behind these values is PubChem BioAssay (NCI).
